{"source": "patent US8952037B2", "about": "“Heteroaryloxycarbocyclyl compounds as PDE10 inhibitors” (Amgen Inc., priority 2010, dated 2015)", "data": [{"target": "PDE10", "assay": "MPDE10A7 enzyme inhibition, IMAP TR-FRET assay", "type": "biochemical", "conditions": "read-out: PDE10 IC50", "protocol": "(§1) MPDE10A7 Enzyme Activity and Inhibition\n(§2) Enzyme Activity. An IMAP TR-FRET assay was used to analyze the enzyme activity (Molecular Devices Corp., Sunnyvale Calif.). 5 μL, of serial diluted PDE10A (BPS Bioscience, San Diego, Calif.) or tissue homogenate was incubated with equal volumes of diluted fluorescein labeled cAMP or cGMP for 60 min in 384-well polystyrene assay plates (Corning, Corning, N.Y.) at room temperature. After incubation, the reaction was stopped by adding 60 μL, of diluted binding reagents and was incubated for 3 hours to overnight at room temperature. The plates were read on an Envision (Perkin Elmer, Waltham, Mass.) for time resolved fluorescence resonance energy transfer. The data were analyzed with GraphPad Prism (La Jolla, Calif.).\n(§3) Enzyme Inhibition. To check the inhibition profile, 5 μL, of serial diluted compounds were incubated with 5 μL, of diluted PDE10 enzyme (BPS Bioscience, San Diego, Calif.) or tissue homogenate in a 384-well polystyrene assay plate (Corning, Corning, N.Y.) for 30 min at room temperature. After incubation, 10 μL, of diluted fluorescein labeled cAMP or cGMP substrate were added and incubated for 60 min at room temperature. The reaction was stopped by adding 60 μL of diluted binding reagents and plates were read on an Envision (Perkin Elmer, Waltham, Mass.) for time resolved fluorescence resonance energy transfer. The data were analyzed with GraphPad Prism (La Jolla, Calif.).", "units": {"IC50": "nM"}, "values": [{"molecule": "O=C(CO)N1CCC(c2nccnc2OC2CC(Nc3nc4ccccc4s3)C2)CC1", "note": "[Example 73, 1-(4-(3-((1S,3S)-3-(benzo[d]thiazol-2-ylamino)cyclobutoxy)pyrazin-2-yl)piperidin-1-yl)-2-hydroxyethanone]", "IC50": 4.81}, {"molecule": "CN1CCC(c2nccnc2O[C@H]2C[C@@H](Nc3nc4ccccc4s3)C2)CC1", "note": "[Example 74, N-((1S,3S)-3-((3-(1-methylpiperidin-4-yl)pyrazin-2-yl)oxy)cyclobutyl)benzo[d]thiazol-2-amine]", "IC50": 49.8}, {"molecule": "F[C@H]1CCN(c2nccnc2OC2CC(Nc3nc4ccccc4s3)C2)C1", "note": "(stereo partly drawn) [Example 97, N-((1S,3S)-3-((3-(3-fluoropyrrolidin-1-yl)pyrazin-2-yl)oxy)cyclobutyl)benzo[d]thiazol-2-amine]", "IC50": 3.35}, {"molecule": "O=C1CCN(c2nccnc2OC2CC(Nc3nc4ccccc4s3)C2)CC1", "note": "[Example 98, 1-(3-((1S,3S)-3-(benzo[d]thiazol-2-ylamino)cyclobutoxy)pyrazin-2-yl)piperidin-4-one]", "IC50": 21.1}, {"molecule": "FC1(F)CCN(c2nccnc2OC2CC(Nc3nc4ccccc4s3)C2)CC1", "note": "[Example 99, N-((1S,3S)-3-((3-(4,4-difluoropiperidin-1-yl)pyrazin-2-yl)oxy)cyclobutyl)benzo[d]thiazol-2-amine]", "IC50": 17.7}, {"molecule": "CC(O)C1CCN(c2nccnc2OC2CC(Nc3nc4ccccc4s3)C2)CC1", "note": "[Example 102, 1-(1-(3-((1S,3S)-3-(benzo[d]thiazol-2-ylamino)cyclobutoxy)pyrazin-2-yl)piperidin-4-yl)ethanol]", "IC50": 10.8}, {"molecule": "Fc1ccc(C2CCOCC2)c(OC2CC(Nc3nc4ccccc4s3)C2)n1", "note": "[Example 105, N-((1S,3S)-3-((6-fluoro-3-(tetrahydro-2H-pyran-4-yl)pyridin-2-yl)oxy)cyclobutyl)benzo[d]thiazol-2-amine]", "IC50": 0.758}, {"molecule": "N#Cc1ccc(N[C@H]2C[C@@H](Oc3ncccc3C3CCOCC3)C2)nc1", "note": "[Example 106, 6-(((1S,3S)-3-((3-(tetrahydro-2H-pyran-4-yl)pyridin-2-yl)oxy)cyclobutyl)amino)nicotinonitrile]", "IC50": 590}, {"molecule": "N#Cc1ccc(N[C@H]2C[C@H](Oc3ncccc3C3CCOCC3)C2)nc1", "note": "[Example 107, 6-(((1R,3R)-3-((3-(tetrahydro-2H-pyran-4-yl)pyridin-2-yl)oxy)cyclobutyl)amino)nicotinonitrile]", "IC50": 865}, {"molecule": "FC(F)(F)c1ccc(N[C@H]2C[C@H](Oc3ncccc3C3CCOCC3)C2)nc1", "note": "[Example 108, N-((1R,3R)-3-((3-(tetrahydro-2H-pyran-4-yl)pyridin-2-yl)oxy)cyclobutyl)-5-(trifluoromethyl)pyridin-2-amine]", "IC50": 436}, {"molecule": "FC(F)(F)c1ccc(N[C@H]2C[C@@H](Oc3ncccc3C3CCOCC3)C2)nc1", "note": "[Example 109, N-((1S,3S)-3-((3-(tetrahydro-2H-pyran-4-yl)pyridin-2-yl)oxy)cyclobutyl)-5-(trifluoromethyl)pyridin-2-amine]", "IC50": 106}, {"molecule": "Clc1ccc(N[C@H]2C[C@@H](Oc3ncccc3C3CCOCC3)C2)nc1", "note": "[Example 110, 5-chloro-N-((1S,3S)-3-((3-(tetrahydro-2H-pyran-4-yl)pyridin-2-yl)oxy)cyclobutyl)pyridin-2-amine]", "IC50": 26.2}, {"molecule": "Clc1ccc(N[C@H]2C[C@H](Oc3ncccc3C3CCOCC3)C2)nc1", "note": "[Example 111, 5-chloro-N-((1R,3R)-3-((3-(tetrahydro-2H-pyran-4-yl)pyridin-2-yl)oxy)cyclobutyl)pyridin-2-amine]", "IC50": 83.7}, {"molecule": "CC(=O)N1CCC(c2cccnc2OC2CC(NS(=O)(=O)c3ccc(C)cc3)C2)CC1", "note": "[Example 114, N-((1S,3S)-3-((3-(1-acetylpiperidin-4-yl)pyridin-2-yl)oxy)cyclobutyl)-4-methylbenzenesulfonamide]", "IC50": 12400}, {"molecule": "CC(=O)N1CCC(c2cccnc2OC2CC(NS(=O)(=O)c3ccc(C)cc3)C2)CC1", "note": "[Example 115, N-((1R,3R)-3-((3-(1-acetylpiperidin-4-yl)pyridin-2-yl)oxy)cyclobutyl)-4-methylbenzenesulfonamide]", "IC50": 916}, {"molecule": "FC(F)(F)c1ccc(NC2CC(Oc3ncncc3C3CCOCC3)C2)nc1", "note": "[Example 116, N-((1R,3R)-3-((5-(tetrahydro-2H-pyran-4-yl)pyrimidin-4-yl)oxy)cyclobutyl)-5-(trifluoromethyl)pyridin-2-amine]", "IC50": 959}, {"molecule": "FC(F)(F)c1ccc(NC2CC(Oc3ncncc3C3CCOCC3)C2)nc1", "note": "[Example 117, N-((1S,3S)-3-((5-(tetrahydro-2H-pyran-4-yl)pyrimidin-4-yl)oxy)cyclobutyl)-5-(trifluoromethyl)pyridin-2-amine]", "IC50": 321}, {"molecule": "TRANS-BENZOTHIAZOL-2-YL-{3-[5-FLUORO-3-(TETRAHYDRO-PYRAN-4-YL)-PYRIDIN-2-YL]-CYCLOBUTYL}-AMINE [Example 5B]", "IC50": 0.1}]}, {"target": "PDE10", "assay": "MPDE10A7 enzyme inhibition, IMAP TR-FRET assay", "type": "biochemical", "conditions": "separated enantiomers; absolute stereochemistry not determined, value can be for either enantiomer of the pair; read-out: IC50", "protocol": "as §1, §2, §3", "units": {"IC50": "nM"}, "values": [{"molecule": "OC[C@H]1CCCN(c2nccnc2OC2CC(Nc3nc4ccccc4s3)C2)C1", "note": "(stereo partly drawn) [Example 91, ((S)-1-(3-((1S,3R)-3-(benzo[d]thiazol-2-ylamino)cyclobutoxy)pyrazin-2-yl)piperidin-3-yl)methanol]", "IC50": 26}, {"molecule": "OC[C@@H]1CCCN(c2nccnc2OC2CC(Nc3nc4ccccc4s3)C2)C1", "note": "(stereo partly drawn) [Example 92, ((R)-1-(3-((1S,3S)-3-(benzo[d]thiazol-2-ylamino)cyclobutoxy)pyrazin-2-yl)piperidin-3-yl)methanol]", "IC50": 2.81}, {"molecule": "C[C@H]1CCN(c2nccnc2OC2CC(Nc3nc4ccccc4s3)C2)C1", "note": "(stereo partly drawn) [Example 93, N-((1S,3S)-3-((3-((R)-3-methylpyrrolidin-1-yl)pyrazin-2-yl)oxy)cyclobutyl)benzo[d]thiazol-2-amine]", "IC50": 3.24}, {"molecule": "C[C@H]1CCN(c2nccnc2OC2CC(Nc3nc4ccccc4s3)C2)C1", "note": "(stereo partly drawn) [Example 94, N-((1R,3S)-3-((3-((S)-3-methylpyrrolidin-1-yl)pyrazin-2-yl)oxy)cyclobutyl)benzo[d]thiazol-2-amine]", "IC50": 8.02}, {"molecule": "N#C[C@@H]1CCN(c2nccnc2OC2CC(Nc3nc4ccccc4s3)C2)C1", "note": "(stereo partly drawn) [Example 95, (R)-1-(3-((1S,3S)-3-(benzo[d]thiazol-2-ylamino)cyclobutoxy)pyrazin-2-yl)pyrrolidine-3-carbonitrile]", "IC50": 0.728}, {"molecule": "N#C[C@H]1CCN(c2nccnc2OC2CC(Nc3nc4ccccc4s3)C2)C1", "note": "(stereo partly drawn) [Example 96, (S)-1-(3-((1S,3R)-3-(benzo[d]thiazol-2-ylamino)cyclobutoxy)pyrazin-2-yl)pyrrolidine-3-carbonitrile]", "IC50": 5.27}]}]}
